Laboratory results as given in patent US6080731A, “Dinucleoside-5', 5'-pyrophosphates administered to treat HIV” (Biosearch Italia, S.p.A., priority 1994, dated 2000).

What was measured:
HIV = experiment: Anti-HIV in vitro activity: inhibition of the HIV-induced cytopathic effect in MT-4 cells; type: cell-based; settings: Human immunodeficiency virus 1, MT4, read-out: 50% effective concentration (IC50)
Description: (§1) To confirm the anti-HIV activity of some dinucleoside-5',5'-P^1,P^2-pyrophosphates representative of this invention, invitro tests have been carried out on a HTLV-1 transformed cell line, MT-4, which is highly susceptible to and permissive for HIV infection. The inhibition of the HIV-induced cytopathic effect was used as the end point. The procedure of this test is essentially that described by R. Pauwels et al. "Rapid and automated tetrazolium-based calorimetric assay for the detection of anti-HIV compounds". Journal of Virological Methods, 20, (1988), 309-321.
(§2) Thymine-3'-azido-2',3'-dideoxy-D-riboside (AZT) was taken as control compound.

[1] = 50% cytotoxic concentration in MT-4 cells; type: cell-based; settings: human
Description: as §1, §2

[2] = Concentration of di-AZT-5',5'-P^1,P^2 -pyrophosphate and its metabolites in loaded human red blood cells; type: in vitro ADME; settings: 37° C., autologous plasma; for Concentration into human red blood cells: 10% hematocrit, erythrocytes loaded with di-AZT-pyrophosphate
Method: (§3) A two step procedure was used consisting of a first dialysis of the washed and packed erythrocytes (80% hematocrit) against 70 volumes of hemolysing buffer (5 mM Na2 HPO4 supplemented with 4 mM MgCl2, pH 7.2, 26 mOsm) for 35 minutes at 4° C. under gentle rotation. This step was followed by addition of 10-15 mM di-AZT-5',5'-P^1,P^2 -pyrcphosphate inside the dialysis bag and further dialysis for 15 minutes under the same conditions. Erythrocytes were then resealed by dialysing them for 40 minutes at 4° C. against phosphate-saline buffer, pH 7.4, supplemented with 10 mM glucose and adenosine, 310 mOsm. The loaded erythrocytes were then extensively washed with ice-cold aqueous NaCl (0.9% w/w) and incubated at 37° C. in autologous plasma at 10% hematocrit.
(§4) The concentration of the dinucleoside pyrophosphate and its metabolites in the plasma and red blood cells was determined at successive time intervals by using the following method.
At various times, 1 ml aliquots of the incubation mixture were withdrawn. After the separation of the erythrocytes from plasma, the two fractions were separately extracted.
100 Microliters of packed red blood cells (RBC) were added to 100 microliters of water, then 68 microliters of 3.7 M perchloric acid (PCA) were added under vigorous shaking. The sample was centrifuged and 140 microliters of the supernatant were neutralized with 30 microliters of 3 M potassium carbonate. The sample was then centrifuged to remove the formed precipitate.
(§5) 150 Microliters of the plasma fractions were treated with 50 microliters of 3.7 M PCA and 120 microliters of the supernatant were neutralized with 27 microliters of 3 M potassium carbonate and centrifuged. […] The solvent program was a linear gradient starting at 100% of buffer A (0.1 M KH2 PO4 with 5 mM tert-butylammonium hydroxide (TBA), pH 4.9) and increasing up to 100% buffer B (0.1 M KH2 PO4 with 5 mM TBA, in 40% (v/v) methanol in water, pH 4.9) in 30 minutes; 100% buffer B was maintained up to 50 minutes. The flow rate was 0.4 ml/min and the eluted compounds were monitored with a spectrophotometric detector set at 265 nm.

[3] = Concentration of di-AZT-5',5'-P^1,P^2 -pyrophosphate and its metabolites in human plasma incubated with loaded erythrocytes; type: in vitro ADME; settings: 37° C., autologous plasma, 10% hematocrit, released from loaded erythrocytes
Method: as §3, §4
At various times, 1 ml aliquots of the incubation mixture were withdrawn. After the separation of the erythrocytes from plasma, the two fractions were separately extracted. […]
as §5

[4] = De-phosphorylation rate of encapsulated pro-drug; type: in vitro ADME; settings: pro-drug for encapsulation into erythrocytes

Structure (SMILES)	IC50 (HIV) [nM]	CC50 [1] [nM]	Concentration into human red blood cells ([2]; 6 h) [µM]	Concentration into human red blood cells ([2]; 24 h) [µM]	Concentration in human plasma ([3]; 0 h) [µM]	Concentration in human plasma ([3]; 2 h) [µM]	Concentration in human plasma ([3]; 6 h) [µM]	Concentration in human plasma ([3]; 24 h) [µM]	Concentration into human red blood cells ([2]; 0 h) [µM]	Concentration into human red blood cells ([2]; 2 h) [µM]	Release from the erythrocytes ([2]; human red blood cells)	De-phosphorylation rate with respect to the respective monophosphate [4]
Cc1cn([C@H]2C[C@H](N=[N+]=[N-])[C@@H](CO)O2)c(=O)[nH]c1=O [AZT, thymine-3'-azido-2',3'-dideoxy-D-riboside, reference compound]	28	70000	600	100	4.6	14.42	62.43	355.78	–	–	–	–
Cc1cn([C@H]2C[C@H](N=[N+]=[N-])[C@@H](COP(=O)(O)O)O2)c(=O)[nH]c1=O [AZT-monophosphate, thymine-3'-azido-2',3'-dideoxy-D-riboside-5'-monophosphate]	–	–	650	930	21.94	28.21	24.68	67.11	40	90	–	–
Cc1cn([C@H]2C[C@H](N=[N+]=[N-])[C@@H](COP(=O)(O)OP(=O)(O)OC[C@H]3O[C@@H](n4cc(C)c(=O)[nH]c4=O)C[C@@H]3N=[N+]=[N-])O2)c(=O)[nH]c1=O [Compound 1, di-(thymine-3'-azido-2',3'-dideoxy-D-riboside)-5',5'-P^1,P^2-pyrophosphate]	31	> 100000	2900	1800	4.49	3.75	5.27	5.34	3900	4100	released from the erythrocytes at a very low rate	–
O=c1[nH]c(=O)n([C@H]2C[C@H](O)[C@@H](COP(=O)(O)OP(=O)(O)OC[C@H]3O[C@@H](n4cc(F)c(=O)[nH]c4=O)C[C@@H]3O)O2)cc1F [Example 6, di-(5-fluorouracil-2'-deoxy-D-riboside)-5',5'-P^1,P^2-pyrophosphate]	–	–	–	–	–	–	–	–	–	–	–	lower de-phosphorylation rate with respect to the respective monophosphate
